{"source": "patent US20090209457A1", "about": "“TREATMENT OF ANTI-ERYTHROPOIETIN ANTIBODY-MEDIATED DISORDERS WITH SYNTHETIC PEPTIDE-BASED EPO RECEPTOR AGONISTS” (Affymax, Inc., priority 2008, published 2009)", "key": {"[1]": {"test_system": "anti-Peptide I antibodies", "experiment": "Anti-Peptide I antibody assay (ELISA) in patient serum", "set-up": "species or system human", "conditions": "10 patients, after up to 10 doses", "experimental": "The anti-Peptide I antibody assay was performed in the laboratories of the Sponsor using an ELISA method, with a sensitivity of 300 ng/mL [Fan Q., et al. (2006) Exp. Hematol. 34: 1303-11; Woodburn K W, et al. (2007) Exp. Hematol. 35: 1201-8]. Anti-EPO antibodies were measured by radioimmune precipitation assay. To confirm that the patient's antibodies were not cross-reactive with Peptide I, serum from three patients was tested in bone marrow cultures (established from healthy human donors, as previously described [Verhelst D, et al. (2004) Lancet 363: 1768-71]). Culture conditions included 20% of either fetal calf serum as a control or one of the study patient's serum. Cultures included either 1 IU/mL of recombinant human EPO or 0.55 μg/mL of Peptide I (a concentration previously shown to be equivalent to 1 IU/mL of EPO for erythroid growth). Erythroid colonies were counted on day 7."}, "[2]": {"conditions": "in vivo; cited from earlier work"}, "[3]": {"test_system": "patients with anti-EPO antibody-mediated PRCA", "experiment": "Open-label clinical study in patients with anti-EPO antibody-mediated PRCA", "format": "in vivo, human", "experimental": "An open-label, prospective, non-randomized study was conducted to investigate the ability of Peptide I to correct anemia in patients with PRCA that is characterized by anti-EPO antibodies. The pre-specified primary objective was to determine if Peptide I could increase and maintain hemoglobin levels above 11 g/dL (consistent with both U.S.[KDOQI Clinical Practice Guidelines and Clinical Practice Recommendations for Anemia in Chronic Kidney Disease (2006) Am. J. Kidney Dis. 47 (Suppl 3):S11-S145.] and European Guidelines [Locatelli F, et al. (2004) Nephrol. Dial. Transplant 19 (Suppl 2): ii1-47.]) without the need for red cell transfusions in patients with anti-EPO antibody-mediated PRCA during 6 months of treatment. The effect of Peptide I on reducing red cell transfusions, the time required to correct anemia in the absence of transfusions, dose requirements, and safety were also assessed.\nPatients older than 18 years of age were eligible for inclusion if they had CKD (with or without the need for dialysis) and PRCA or red cell hypoplasia due to anti-EPO antibodies. Patients were required to have a documented history of: (1) a decrease in hemoglobin concentration while receiving a stable or increased dose of a protein-based ESA, or red cell transfusion dependency; (2) reticulocyte counts of <30×10^9/L; (3) a bone marrow examination showing severe erythroid hypoplasia or aplasia; and (4) a confirmed positive test for anti-EPO antibodies. Patients may have received immunosuppressive therapy previously, but these medications were to be discontinued for at least three months prior to enrollment. At the time of enrollment, patients had to either be transfusion-dependent, or have a hemoglobin concentration persistently below 11 g/dL without ESA therapy. The presence of another hematological disorder, another known cause of PRCA, and current treatment with ESA or immunosuppressive therapy represented the major exclusion criteria.\nBlood samples were taken for baseline measurement of the complete blood count, reticulocyte count, urea, electrolytes, liver function tests, iron status, anti-EPO antibodies, and anti-Peptide I antibodies. Upon meeting study eligibility criteria, treatment with Peptide I was initiated at a dose of 0.05 mg/kg by SC injection Q4W. Hemoglobin and reticulocyte counts were performed weekly, while samples were taken monthly for other safety laboratory parameters including urea, electrolytes, liver function tests and anti-EPO and anti-Peptide I antibodies. The frequency and dose of each injection was adjusted based on the patient's hemoglobin response to achieve a hemoglobin level in the target range of 11-13 g/dL. This target was subsequently changed to 11-12 g/dL in early 2007 following publication of the CREATE [Drueke T B, et al. (2006) N. Engl. J. Med. 355: 2071-84] and CHOIR [Singh A K, et al. (2006) N. Engl. J. Med 355: 2085-98] studies, in line with subsequent KDOQI recommendations [KDOQI Clinical Practice Guideline and Clinical Practice Recommendations for Anemia in Chronic Kidney Disease (2007) Am. J. Kidney Disease 50: 471-530].\nThe study was designed to enroll 5-20 patients with anti-EPO antibody mediated PRCA based on the Investigators' estimate of the maximum number of potentially eligible patients with access to the study centers. Patients were to be treated for an initial 6-month period. […] All patients who received at least one dose of Peptide I were included in the safety analysis, and those with at least one hemoglobin value following dosing were included in the efficacy analyses. All safety and efficacy results were summarized using descriptive statistics and data are presented as medians, 25th and 75th percentiles, and ranges."}}, "note": "Entries after “also recorded” stand apart in the source; their conditions may differ. Bridge positions count the residues as written; N and C are the ends. Square brackets hold non-standard residues; d marks the D form. Ends that are not written are not given here. 1Nal = N[C@@H](Cc1cccc2ccccc12)C(=O)O; Sar = CNCC(=O)O"}
{"substance": "PEGylated homodimer of peptide monomers (AcG)GLYACHMGPIT(1-nal)VCQPLR(MeG)K (SEQ ID NO: 2), EPO-R agonist (Ac-GGLYACHMGPIT[1Nal]VCQPLR[Sar]K; disulfide 6-15 (inferred); not fully specified (residue 21); printed as (AcG)GLYACHMGPIT(1-nal)VCQPLR(MeG)K; also: PEGylated) [Peptide I]", "values": [{"measurement": "anti-Peptide I antibodies in serum", "setting": "[1]", "result": "No anti-Peptide I antibodies were detected"}, {"measurement": "clearance times", "setting": "[2]", "result": "slow"}, {"measurement": "half-life", "setting": "[2]", "result": "prolonged"}, {"measurement": "patients with hemoglobin response (above 11 g/dL without transfusion)", "setting": "[3]; 10 patients, median follow up 13.5 months, SC Q4W", "result": 10, "unit": "patients"}, {"measurement": "tolerability", "setting": "[3]; SC injections", "result": "generally well-tolerated"}, {"measurement": "patients receiving red blood cell transfusions", "setting": "[3]; as of month 4", "result": "one"}, {"measurement": "median ferritin levels", "setting": "[3]; at data cut-off, baseline 1,356 μg/L", "result": "1,243 μg/L"}, {"measurement": "median TSAT", "setting": "[3]; at data cut-off, baseline 70.9%", "result": 50.0, "unit": "%"}, {"measurement": "patients receiving red blood cell transfusions", "setting": "[3]; at month 6", "result": "no patient"}, {"measurement": "median hemoglobin", "setting": "[3]; by 6 months, baseline 9.7 g/dL", "result": 11.6, "unit": "g/dL"}, {"measurement": "patients receiving red blood cell transfusions", "setting": "[3]; during month 7 (prior to kidney transplant surgery)", "result": "one"}, {"measurement": "patients receiving red blood cell transfusions", "setting": "[3]; during the first month", "result": 3, "unit": "patients"}, {"measurement": "patients receiving red blood cell transfusions", "setting": "[3]; from month 8 onwards", "result": "no patient"}, {"measurement": "median time to hemoglobin response", "setting": "[3]; human, in vivo", "result": 10, "unit": "weeks"}, {"measurement": "serious adverse events related to study drug", "setting": "[3]; human, in vivo", "result": "none of these events was considered related to study drug; also recorded: no reports of serious adverse events related to Peptide I"}, {"measurement": "serious adverse events", "setting": "[3]; in 2 patients", "result": "Four"}, {"measurement": "adverse events reported", "setting": "[3]; in 10 patients", "result": 108, "unit": "events"}, {"measurement": "adverse events at least possibly related to Peptide I", "setting": "[3]; of 108 events", "result": 4, "unit": "events"}, {"measurement": "adverse events mild or moderate in severity", "setting": "[3]; of 108 events", "result": 97, "unit": "events"}]}
